Numbers after ± are expanded uncertainties.
Legend:
[1] = refractive index (Na D-line) (dimensionless); xn = mol fraction of the nth substance listed; settings: 298.15 K, 101 kPa, Liquid, Standard Abbe refractometry
[2] = xn = mol fraction of the nth substance listed; settings: 101 kPa, Liquid

CCOS(=O)(=O)[O-].CC[n+]1cccc(C)c1 [1-ethyl-3-methylpyridinium ethylsulfate] + CCO
refractive index ([1]; x2 = 0.0609): 1.50392 ± 0.00065
refractive index ([1]; x2 = 0.1108): 1.50181 ± 0.00062
refractive index ([1]; x2 = 0.2066): 1.4973 ± 0.00058
refractive index ([1]; x2 = 0.3083): 1.49126 ± 0.00053
refractive index ([1]; x2 = 0.4004): 1.48469 ± 0.00049
refractive index ([1]; x2 = 0.4998): 1.476 ± 0.00045
refractive index ([1]; x2 = 0.6034): 1.46448 ± 0.00041
refractive index ([1]; x2 = 0.7034): 1.45003 ± 0.00038
refractive index ([1]; x2 = 0.8452): 1.41977 ± 0.00034
refractive index ([1]; x2 = 0.9389): 1.38864 ± 0.00032
mass density ([2]; 298.15 K, x2 = 0.0609): 1214.93 ± 3.8 kg/m3
viscosity ([2]; 298.15 K, x2 = 0.0609): 116.7 ± 14 mPa·s
mass density ([2]; 298.15 K, x2 = 0.1108): 1208.33 ± 3.5 kg/m3
viscosity ([2]; 298.15 K, x2 = 0.1108): 96.9 ± 8.9 mPa·s
mass density ([2]; 298.15 K, x2 = 0.2066): 1193.93 ± 3 kg/m3
viscosity ([2]; 298.15 K, x2 = 0.2066): 68 ± 3 mPa·s
mass density ([2]; 298.15 K, x2 = 0.3083): 1175.71 ± 2.5 kg/m3
viscosity ([2]; 298.15 K, x2 = 0.3083): 45.35 ± 1.6 mPa·s
mass density ([2]; 298.15 K, x2 = 0.4004): 1155.73 ± 2 kg/m3
viscosity ([2]; 298.15 K, x2 = 0.4004): 31.11 ± 1.1 mPa·s
mass density ([2]; 298.15 K, x2 = 0.4998): 1129.53 ± 1.6 kg/m3
viscosity ([2]; 298.15 K, x2 = 0.4998): 20.04 ± 0.76 mPa·s
mass density ([2]; 298.15 K, x2 = 0.6034): 1094.96 ± 1.2 kg/m3
viscosity ([2]; 298.15 K, x2 = 0.6034): 12.17 ± 0.57 mPa·s
mass density ([2]; 298.15 K, x2 = 0.7034): 1051.68 ± 0.86 kg/m3
viscosity ([2]; 298.15 K, x2 = 0.7034): 7.452 ± 0.48 mPa·s
mass density ([2]; 298.15 K, x2 = 0.8452): 961.67 ± 0.64 kg/m3
viscosity ([2]; 298.15 K, x2 = 0.8452): 3.322 ± 0.42 mPa·s
mass density ([2]; 298.15 K, x2 = 0.9389): 870.77 ± 1 kg/m3
viscosity ([2]; 298.15 K, x2 = 0.9389): 1.812 ± 0.41 mPa·s
mass density ([2]; 313.15 K, x2 = 0.0609): 1205.03 ± 3.7 kg/m3
viscosity ([2]; 313.15 K, x2 = 0.0609): 55.2 ± 1.1 mPa·s
mass density ([2]; 313.15 K, x2 = 0.1108): 1198.38 ± 3.4 kg/m3
viscosity ([2]; 313.15 K, x2 = 0.1108): 48.57 ± 1.7 mPa·s
mass density ([2]; 313.15 K, x2 = 0.2066): 1183.86 ± 2.9 kg/m3
viscosity ([2]; 313.15 K, x2 = 0.2066): 36.25 ± 1.3 mPa·s
mass density ([2]; 313.15 K, x2 = 0.3083): 1165.53 ± 2.4 kg/m3
viscosity ([2]; 313.15 K, x2 = 0.3083): 25.91 ± 0.93 mPa·s
mass density ([2]; 313.15 K, x2 = 0.4004): 1145.51 ± 2 kg/m3
viscosity ([2]; 313.15 K, x2 = 0.4004): 18.88 ± 0.74 mPa·s
mass density ([2]; 313.15 K, x2 = 0.4998): 1119.07 ± 1.6 kg/m3
viscosity ([2]; 313.15 K, x2 = 0.4998): 12.92 ± 0.59 mPa·s
mass density ([2]; 313.15 K, x2 = 0.6034): 1084.3 ± 1.2 kg/m3
viscosity ([2]; 313.15 K, x2 = 0.6034): 8.317 ± 0.5 mPa·s
mass density ([2]; 313.15 K, x2 = 0.7034): 1040.72 ± 0.81 kg/m3
viscosity ([2]; 313.15 K, x2 = 0.7034): 5.332 ± 0.45 mPa·s
mass density ([2]; 313.15 K, x2 = 0.8452): 950.09 ± 0.69 kg/m3
viscosity ([2]; 313.15 K, x2 = 0.8452): 2.502 ± 0.41 mPa·s
mass density ([2]; 313.15 K, x2 = 0.9389): 858.52 ± 1.1 kg/m3
viscosity ([2]; 313.15 K, x2 = 0.9389): 1.388 ± 0.4 mPa·s
mass density ([2]; 328.15 K, x2 = 0.0609): 1195.2 ± 3.6 kg/m3
viscosity ([2]; 328.15 K, x2 = 0.0609): 31.2 ± 1.1 mPa·s
mass density ([2]; 328.15 K, x2 = 0.1108): 1188.52 ± 3.4 kg/m3
viscosity ([2]; 328.15 K, x2 = 0.1108): 28.12 ± 1 mPa·s
mass density ([2]; 328.15 K, x2 = 0.2066): 1173.91 ± 2.8 kg/m3
viscosity ([2]; 328.15 K, x2 = 0.2066): 21.86 ± 0.83 mPa·s
mass density ([2]; 328.15 K, x2 = 0.3083): 1155.46 ± 2.3 kg/m3
viscosity ([2]; 328.15 K, x2 = 0.3083): 16.41 ± 0.68 mPa·s
mass density ([2]; 328.15 K, x2 = 0.4004): 1135.36 ± 1.9 kg/m3
viscosity ([2]; 328.15 K, x2 = 0.4004): 12.52 ± 0.58 mPa·s
mass density ([2]; 328.15 K, x2 = 0.4998): 1108.74 ± 1.5 kg/m3
viscosity ([2]; 328.15 K, x2 = 0.4998): 8.971 ± 0.51 mPa·s
mass density ([2]; 328.15 K, x2 = 0.6034): 1073.73 ± 1.1 kg/m3
viscosity ([2]; 328.15 K, x2 = 0.6034): 6.023 ± 0.46 mPa·s
mass density ([2]; 328.15 K, x2 = 0.7034): 1029.83 ± 0.75 kg/m3
viscosity ([2]; 328.15 K, x2 = 0.7034): 3.99 ± 0.43 mPa·s
mass density ([2]; 328.15 K, x2 = 0.8452): 938.48 ± 0.74 kg/m3
viscosity ([2]; 328.15 K, x2 = 0.8452): 1.943 ± 0.41 mPa·s
mass density ([2]; 328.15 K, x2 = 0.9389): 846.1 ± 1.1 kg/m3
viscosity ([2]; 328.15 K, x2 = 0.9389): 1.086 ± 0.4 mPa·s
